The values below come from ChEMBL document CHEMBL1123428, “In vitro labeling of serotonin-S2 receptors: synthesis and binding characteristics of [3H]-7-aminoketanserin” (J Med Chem, 1986).

As a reminder, the Ki is a measure of affinity in units of concentration, obtained from inhibition or displacement. A word on the IC50: it is the midpoint of a concentration-inhibition curve.

Assay [1] is filed under the species Rattus norvegicus. Put plainly: Compound was evaluated for its activity at solubilized receptor (CHAPS/salt-solubilized preparation) from rat frontal cortex. It counts as functional, organism-based. The settings on record: for IC50: Rattus norvegicus, Frontal cortex.
The species entered for assay [2] is Rattus norvegicus. Put plainly: Compound was evaluated for its activity at membrane-bound receptor (M+L+P fraction) from rat frontal cortex. It counts as functional, organism-based. The settings on record: for IC50: Rattus norvegicus, Frontal cortex.

As for `NC(=O)C1(N2CCCCC2)CCN(CCCC(=O)c2ccc(F)cc2)CC1` [PIPAMPERONE], in the assay filed under Rattus norvegicus [1], the Ki stood at 9.53 nM and the IC50 is 19.1 nM. Moreover, in the assay listed under Rattus norvegicus [2], affinity was put at a Ki of 1.39 nM and the IC50 is 5.37 nM.
On the same counts, the results for `Cc1nc2ccccn2c(=O)c1CCN1CCC(C(=O)c2ccc(F)cc2)CC1` [PIRENPERONE] are 3.54 nM, 7.08 nM, 0.47 nM and 1.82 nM.
For `COc1cc2nc(N3CCN(C(=O)c4ccco4)CC3)nc(N)c2cc1OC` [PRAZOSIN] the same measures were 19900 nM, 39800 nM, 11600 nM and 44700 nM.
For `COc1ccc(CN(CCN(C)C)c2ccccn2)cc1` [PYRILAMINE] the same measures were 9980 nM, 20000 nM, 1030 nM and 3980 nM.
On to `Cc1nc2sccn2c(=O)c1CCN1CCC(=C(c2ccc(F)cc2)c2ccc(F)cc2)CC1` [RITANSERIN], for which the Ki in the assay listed under Rattus norvegicus [1] was 7.06 nM; in the assay listed under Rattus norvegicus [2] it was 0.9 nM. Also, the results for the IC50 in the assay listed under Rattus norvegicus [1] and in the assay listed under Rattus norvegicus [2] were 14.1 nM and 3.47 nM, respectively.
For `NCCc1c[nH]c2ccc(O)cc12` [SEROTONIN] the same measures were 14100 nM, 919 nM, 28200 nM and 3550 nM.
With (-)-BUTACLAMOL, in the assay listed under Rattus norvegicus [1], the “-Log IC50” value worked out at 4.56 and the Ki is 13800 nM. Moreover, in the assay listed under Rattus norvegicus [2], the “-Log IC50” value came to 4.9 and affinity was put at a Ki of 3260 nM.
